Results on three molecules are retold here after ChEMBL document CHEMBL2406903, “FPRL-1 Receptor Modulators May Provide Treatment for Inflammation” (ACS Med Chem Lett, 2013).

The assay concerns the target T1, N-formyl peptide receptor 2 (Homo sapiens) (UniProt P25090).
T1 sequence (whole entry): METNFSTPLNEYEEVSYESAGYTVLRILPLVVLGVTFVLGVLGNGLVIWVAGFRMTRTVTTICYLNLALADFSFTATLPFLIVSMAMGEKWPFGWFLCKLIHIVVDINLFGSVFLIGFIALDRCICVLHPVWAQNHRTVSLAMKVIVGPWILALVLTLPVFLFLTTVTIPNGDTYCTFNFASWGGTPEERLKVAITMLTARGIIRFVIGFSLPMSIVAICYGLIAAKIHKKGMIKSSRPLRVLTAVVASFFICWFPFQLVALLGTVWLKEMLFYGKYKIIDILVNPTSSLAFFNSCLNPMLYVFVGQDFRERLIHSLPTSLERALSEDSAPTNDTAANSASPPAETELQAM
Nature of the assay: Modulation of FPRL1 (unknown origin) expressed in CHO-Ga16 cells assessed as induction of calcium activity at 0.61 to 10000 nM by FLIPR assay relative to control. The assay is classed as functional, cell-based.

Regarding `CC[C@@H](C)[C@@H](NC(=O)Nc1ccc(Br)cc1)C(=O)NCC(=O)O`, the fold change (FC) stood at 0.45.
As to `CC(C)C[C@H](NC(=O)Nc1ccc(Br)cc1)C(=O)NC(C)(C)C(=O)O`, the fold change (FC) was found to be 0.96.
As to `CC(C)C[C@H](NC(=O)Nc1ccc(C(F)(F)F)cc1)C(=O)NC(C)(C)C(=O)O`, the fold change (FC) amounted to 0.92.
